{
  "source": "patent US20240059688A1",
  "about": "“CONOLIDINE ANALOGUES AS SELECTIVE ACKR3 MODULATORS FOR THE TREATMENT OF CANCER” (Luxembourg Institute of Health (LIH), priority 2020, published 2024)",
  "type_in_all_cases": "cell-based",
  "key": {"ACKR3": {"target": "ACKR3 (Homo sapiens, UniProt P25106)", "sequence (P25106 whole entry)": "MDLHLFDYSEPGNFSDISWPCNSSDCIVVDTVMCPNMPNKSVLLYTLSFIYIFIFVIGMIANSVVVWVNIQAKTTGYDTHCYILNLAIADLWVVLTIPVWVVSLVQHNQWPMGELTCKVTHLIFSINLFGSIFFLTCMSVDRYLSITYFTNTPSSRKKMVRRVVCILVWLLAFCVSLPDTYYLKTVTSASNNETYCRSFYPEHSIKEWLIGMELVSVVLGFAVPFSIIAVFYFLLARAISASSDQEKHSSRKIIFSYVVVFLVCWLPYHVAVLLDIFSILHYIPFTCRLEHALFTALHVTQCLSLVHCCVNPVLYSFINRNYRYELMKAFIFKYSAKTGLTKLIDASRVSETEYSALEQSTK", "experiment": "GPCR β-arrestin screening (PathHunter gpcrMAX/orphanMAX), ACKR3", "conditions": "conolidine 10 μM; over 240 receptors tested", "method": "(§1) In an effort to identify the target of conolidine among the GPCR family, we undertook a large scale screening program using a β-arrestin recruitment assay based on β-galactosidase complementation (PathHunter, DiscoverX). Over 240 receptors were tested for their ability to be activated or inhibited by conolidine (10 μM) (data not shown). These included 168 GPCRs from the gpcrMAX panel, covering over 60 distinct receptor families such as adrenergic, dopamine, P2Y or serotonin and 74 GPCRs from the orphanMAX panel."}, "HRH2": {"target": "HRH2 (Homo sapiens, UniProt P25021)", "sequence (P25021 whole entry)": "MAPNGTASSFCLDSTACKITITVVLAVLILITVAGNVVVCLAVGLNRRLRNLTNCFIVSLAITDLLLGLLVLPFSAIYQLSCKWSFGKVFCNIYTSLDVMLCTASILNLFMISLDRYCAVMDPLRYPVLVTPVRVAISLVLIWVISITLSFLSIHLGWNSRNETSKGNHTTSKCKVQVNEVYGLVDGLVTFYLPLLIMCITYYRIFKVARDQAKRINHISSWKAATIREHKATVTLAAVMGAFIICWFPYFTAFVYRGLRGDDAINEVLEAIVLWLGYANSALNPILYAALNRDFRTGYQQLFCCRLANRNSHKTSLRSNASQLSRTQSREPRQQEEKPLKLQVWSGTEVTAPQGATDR", "experiment": "GPCR β-arrestin screening (PathHunter gpcrMAX/orphanMAX), HRH2", "conditions": "conolidine 10 μM", "method": "as §1"}, "[1]": {"target": "T1, Mast cells G protein-coupled receptor-X2 (MRGPRX2) (Homo sapiens, UniProt Q96LB1)", "T1 sequence (Q96LB1 1-330)": "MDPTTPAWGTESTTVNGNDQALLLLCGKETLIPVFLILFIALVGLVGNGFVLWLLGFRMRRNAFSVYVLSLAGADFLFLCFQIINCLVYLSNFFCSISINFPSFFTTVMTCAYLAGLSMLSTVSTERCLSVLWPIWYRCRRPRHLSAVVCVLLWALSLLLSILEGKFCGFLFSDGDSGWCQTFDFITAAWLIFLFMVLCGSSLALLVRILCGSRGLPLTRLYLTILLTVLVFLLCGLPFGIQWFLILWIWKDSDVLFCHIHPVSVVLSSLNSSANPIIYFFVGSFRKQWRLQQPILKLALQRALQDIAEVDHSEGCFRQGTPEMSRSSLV", "experiment": "GPCR β-arrestin screening (PathHunter gpcrMAX/orphanMAX), MRGPRX2", "conditions": "conolidine 10 μM", "method": "as §1"}, "[2]": {"target": "cannabinoid receptor 2 (CNR2) (Homo sapiens, UniProt P34972)", "sequence (P34972 whole entry)": "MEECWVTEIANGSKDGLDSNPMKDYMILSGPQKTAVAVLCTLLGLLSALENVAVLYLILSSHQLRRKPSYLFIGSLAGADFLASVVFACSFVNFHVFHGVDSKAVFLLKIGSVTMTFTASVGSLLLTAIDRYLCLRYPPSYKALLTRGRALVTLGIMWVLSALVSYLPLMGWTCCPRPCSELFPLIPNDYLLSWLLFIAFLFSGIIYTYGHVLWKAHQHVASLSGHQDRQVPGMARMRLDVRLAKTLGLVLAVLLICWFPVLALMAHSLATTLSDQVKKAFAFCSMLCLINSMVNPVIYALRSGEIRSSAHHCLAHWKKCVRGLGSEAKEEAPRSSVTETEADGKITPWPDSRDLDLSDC", "experiment": "GPCR β-arrestin screening (PathHunter gpcrMAX/orphanMAX), CNR2", "conditions": "conolidine 10 μM", "method": "as §1"}, "[3]": {"target": "T2, melatonin receptor 1B (MTNR1B) (Homo sapiens, UniProt P49286)", "T2 sequence (P49286 1-362)": "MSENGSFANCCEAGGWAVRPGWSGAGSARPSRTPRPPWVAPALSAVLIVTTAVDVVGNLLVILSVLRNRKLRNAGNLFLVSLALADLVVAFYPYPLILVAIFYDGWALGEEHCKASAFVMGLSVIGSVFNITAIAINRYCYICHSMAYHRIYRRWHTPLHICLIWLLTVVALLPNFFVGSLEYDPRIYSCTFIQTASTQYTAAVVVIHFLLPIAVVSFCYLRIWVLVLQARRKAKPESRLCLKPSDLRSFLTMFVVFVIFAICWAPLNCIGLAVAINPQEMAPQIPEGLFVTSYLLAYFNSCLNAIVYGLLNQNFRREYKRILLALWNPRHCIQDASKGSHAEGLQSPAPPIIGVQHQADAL", "experiment": "GPCR β-arrestin screening (PathHunter gpcrMAX/orphanMAX), MTNR1B", "conditions": "conolidine 10 μM", "method": "as §1"}},
  "data": [
    {"smiles": "C/C=C1/CN2CC[C@H]1C(=O)c1[nH]c3ccccc3c1C2", "note": "[WW-1, (4E,5R)-4-ethylidene-1,4,5,7-tetrahydro-2,5-ethanoazocino[4,3-b]indol-6(3H)-one]", "values": [
      {"measurement": "response of ACKR3 in GPCR screening", "setting": "ACKR3", "value": "most responsive receptor"},
      {"measurement": "activity towards HRH2 in GPCR screening", "setting": "HRH2", "value": "No activity was detected"},
      {"measurement": "activation of MRGPRX2 in GPCR screening", "setting": "[1]", "value": "only partially activated"},
      {"measurement": "activation of CNR2 in GPCR screening", "setting": "[2]", "value": "only partially activated"},
      {"measurement": "activation of MTNR1B in GPCR screening", "setting": "[3]", "value": "only partially activated"}
    ]}
  ]
}
